For experiment [1], the target named is PKR(R510Q) (Homo sapiens, UniProt P30613, R510Q). Briefly: Luminescence Biochemical Assay (Kinase Glo Plus), PKR R510Q mutant. Conditions: without FBP; for activation at 1.54 µM: 1.54 μM compound, read-out: AC50 LUM KGP woFBP % Fold@1.54 μM mean; for AC50: read-out: AC50 LUM KGP woFBP AC50 μM gmean; for Emax: read-out: AC50 LUM KGP woFBP MAX % FOLD mean. On the procedure: (§1) In some embodiments, a PKR Activating Compound can have: (1) an AC50 value of less than 0.1 μM (e.g., compounds with AC50 values of “+++” in Table 13), 0.1-1.0 μM (e.g., compounds with AC50 values of “++” in Table 13), or 1.01-40 μM (e.g., compounds with AC50 values of “+” in Table 13); (2) a MAX % Fold of 75%-250%, 250-500%, or 75%-500%; and/or (3) a % Fold@1.54 μM of 75%-250%, 250-500%, or 75%-500%. In some embodiments, a PKR Activating Compound has (1) an AC50 value of less than 1.0 μM; (2) a MAX % Fold of 75%-500%; and/or (3) a % Fold@1.54 μM of 75%-500%.
(§2) The phosphorylation of Adenosine-5′-diphosphate (ADP) by various mutants of PKR was determined by the Kinase Glo Plus Assay (Promega) in the presence or absence of FBP [D-Fructose-1,6-diphosphate; BOC Sciences, CAS: 81028-91-3] as follows. Unless otherwise indicated, all reagents were purchased from Sigma-Aldrich. All reagents were prepared in buffer containing 50 mM Tris-HCl, 100 mM KCl, 5 mM MgCl2, and 0.01% Triton X100, 0.03% BSA, and 1 mM DTT. Enzyme and PEP [Phospho(enol) pyruvic acid] were added at 2× to all wells of an assay-ready plate containing serial dilutions of test compounds or DMSO vehicle. Final enzyme concentrations for PKR(wt), PKR(R510Q), and PKR(G332S) were 0.8 nM, 0.8 nM, and 10 nM respectively. Final PEP concentration was 100 μM. The Enzyme/PEP mixture was incubated with compounds for 30 minutes at RT before the assay was initiated with the addition of 2×ADP [Adenosine-5′-diphosphate] and KinaseGloPlus. Final concentration of ADP was 100 μM. […] For assays containing FBP, that reagent is added at 30 μM upon reaction initiation. Reactions were allowed to progress for 45 minutes at RT until luminescence was recorded by the BMG PHERAstar FS Multilabel Reader. All compounds were tested in triplicate at concentrations ranging from 42.5 μM to 2.2 nM in 0.83% DMSO.
(§3) Luminescence values were converted to % Fold increase by normalizing to the average of the DMSO control and multiplying by 100. Max, min, slope and AC50 were determined by the standard four parameter fit algorithm of ActivityBase XE Runner. Compounds were evaluated with three parameters—AC50, MAX % Fold, and % Fold@1.54 μM (FIG. 1). The AC50 value for a compound is the concentration (μM) corresponding to the midway between the maximum and minimum values of the four parameter logistic curve fit (i.e., at which the % fold increase along the four parameter logistic curve fit is halfway between MAX % Fold and MIN % Fold (% Fold Midpoint)), MAX % Fold is the highest fold increase observed at any concentration of compound, and % Fold@1.54 μM is the fold increase at a compound concentration of 1.54 μM. The parameter % Fold@1.54 μM was selected to capture elements of both the AC50 and MAX % Fold and to provide a ranking based on both potency and effect. The compound concentration of 1.54 μM was chosen as one that can optimally differentiate the set of compounds based on the range of activities observed.
(§4) As set forth in Table 13 below, AC50 values (columns A, D, G) are defined as follows: ≤0.1 μM (+++); >0.1 μM and ≤1.0 μM (++); >1.0 μM and ≤40 μM (+); >40 μM (0). Max % FOLD values (columns B, E, H) are defined as follows: ≤75% (+); >75% and ≤250% (++); >250% and ≤500% (+++). % Fold@1.54 μM values (columns C, F, J) are defined as follows: ≤75% (+); >75% and ≤250% (++); >250% and ≤50000 (+++).
A general note: Kinase-Glo reads ATP consumption through a luciferase reaction.

Experiment [2] has as its target PKR(wt) (Homo sapiens, UniProt P30613). Briefly: Luminescence Biochemical Assay (Kinase Glo Plus), wild type PKR. Particulars: without FBP; for activation at 1.54 µM: 1.54 μM compound, read-out: AC50 LUM KGP woFBP % Fold@1.54 μM mean; for AC50: read-out: AC50 LUM KGP woFBP AC50 μM gmean; for Emax: read-out: AC50 LUM KGP woFBP MAX % FOLD mean. On the procedure: as §1, §2, §3, §4

Where only a bound is given, the exact number is not on record here.

What is called AC50 is the midpoint of the concentration-response curve, whichever way the signal moves.

PKR(wt), sequence (P30613 whole entry): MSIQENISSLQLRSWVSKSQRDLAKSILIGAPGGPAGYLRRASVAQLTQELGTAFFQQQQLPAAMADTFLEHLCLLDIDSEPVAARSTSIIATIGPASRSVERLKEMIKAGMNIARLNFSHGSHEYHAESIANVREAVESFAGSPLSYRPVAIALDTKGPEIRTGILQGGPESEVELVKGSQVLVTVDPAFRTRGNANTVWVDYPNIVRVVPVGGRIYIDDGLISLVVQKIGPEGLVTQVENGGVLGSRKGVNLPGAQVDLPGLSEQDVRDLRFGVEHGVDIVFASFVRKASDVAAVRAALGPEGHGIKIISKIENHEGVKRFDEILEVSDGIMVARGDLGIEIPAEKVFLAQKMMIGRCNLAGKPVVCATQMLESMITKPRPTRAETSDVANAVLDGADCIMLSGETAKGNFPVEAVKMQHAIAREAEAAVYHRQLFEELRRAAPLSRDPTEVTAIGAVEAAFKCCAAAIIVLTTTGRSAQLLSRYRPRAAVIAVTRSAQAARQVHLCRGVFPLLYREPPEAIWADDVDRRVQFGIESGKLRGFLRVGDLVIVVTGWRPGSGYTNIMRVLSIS
PKR(R510Q), sequence (P30613 whole entry R510Q): as the sequence (P30613 whole entry) above, with R510Q counted along it

`C[C@@H](C(=O)N1CC2=C(C1)CN(S(=O)(=O)c1ccc(Cl)s1)C2)c1ccccc1` [Example 19-1, (2R)-1-{5-[(5-chlorothiophen-2-yl)sulfonyl]-1H,2H,3H,4H,5H,6H-pyrrolo[3,4-c]pyrrol-2-yl}-2-phenylpropan-1-one]: in experiment [1], the activation at 1.54 µM was in the range of 75 to 250%, the AC50 was in the range of 1 to 40 µM and the Emax was in the range of 75 to 250%.

As to `COc1ccc(CNC(=O)N2CC3=C(C2)CN(S(=O)(=O)c2cccc(F)c2)C3)cc1` [Example 20-7, 5-(3-Fluorobenzenesulfonyl)-N-[(4-methoxyphenyl)methyl]-1H,2H,3H,4H,5H,6H-pyrrolo[3,4-c]pyrrole-2-carboxamide], in experiment [1], the activation at 1.54 µM lay in the range of 250 to 50000%, the AC50 was in the range of 0.1 to 1 µM and the Emax lay within 250 to 500%.

As to `COc1ccc(CNC(=O)N2CC3=C(C2)CN(S(=O)(=O)c2ccc(OC)c(OC)c2)C3)cc1` [Example 20-31, 5-(3,4-Dimethoxybenzenesulfonyl)-N-[(4-methoxyphenyl)methyl]-1H,2H,3H,4H,5H,6H-pyrrolo[3,4-c]pyrrole-2-carboxamide], in experiment [1], the activation at 1.54 µM fell in the range of 75 to 250%, the AC50 is 1 to 40 µM and the Emax lay within 75 to 250%.

`Cc1ccc(C(C)NC(=O)N2CC3=C(C2)CN(S(=O)(=O)c2ccc(OC(F)F)cc2)C3)o1` (stereo not drawn) [Example 21-3, 5-[4-(Difluoromethoxy)benzenesulfonyl]-N-[1-(5-methylfuran-2-yl)ethyl]-1H,2H,3H,4H,5H,6H-pyrrolo[3,4-c]pyrrole-2-carboxamide]: in experiment [2], the activation at 1.54 µM was 75 to 250%, the AC50 was 1 to 40 µM and the Emax fell in the range of 250 to 500%.

In the case of `CC[C@H](O)C(=O)N1CC2=C(C1)CN(S(=O)(=O)c1ccc3c(c1)N(C)CCO3)C2` [Example 18-75, (2S)-2-hydroxy-1-{5-[(4-methyl-3,4-dihydro-2H-1,4-benzoxazin-6-yl)sulfonyl]-1H,2H,3H,4H,5H,6H-pyrrolo[3,4-c]pyrrol-2-yl}butan-1-one], in experiment [2], the activation at 1.54 µM was 75 to 250%, the AC50 was 1 to 40 µM and the Emax lay in the range of 75 to 250%.

As for `Cc1cc(C(C)NC(=O)N2CC3=C(C2)CN(S(=O)(=O)c2ccc(OC(F)F)cc2)C3)c(C)o1` (stereo not drawn) [Example 21-4, 5-[4-(Difluoromethoxy)benzenesulfonyl]-N-[1-(2,5-dimethylfuran-3-yl)ethyl]-1H,2H,3H,4H,5H,6H-pyrrolo[3,4-c]pyrrole-2-carboxamide], in experiment [2], the activation at 1.54 µM lay in the range of 75 to 250%, the half-maximal activity concentration (AC50) is 1 to 40 µM and the Emax lay within 250 to 500%.

Regarding `O=C(NCC1CCCO1)N1CC2=C(C1)CN(S(=O)(=O)c1ccc3occc3c1)C2` (stereo not drawn) [Example 3-1, 5-(Benzofuran-5-ylsulfonyl)-N-((tetrahydrofuran-2-yl)methyl)-3,4,5,6-tetrahydropyrrolo[3,4-c]pyrrole-2(1H)-carboxamide], in experiment [2], the activation at 1.54 µM was 75 to 250%, the AC50 fell in the range of 0.1 to 1 µM and the Emax fell in the range of 75 to 250%.

As to `COC[C@@H](C)NC(=O)N1CC2=C(C1)CN(S(=O)(=O)c1ccc3occc3c1)C2` [Example 3-3, (R)-5-(benzofuran-5-ylsulfonyl)-N-(1-methoxypropan-2-yl)-3,4,5,6-tetrahydropyrrolo[3,4-c]pyrrole-2(1H)-carboxamide], in experiment [2], the activation at 1.54 µM is 75 to 250%, the AC50 fell in the range of 1 to 40 µM and the Emax fell in the range of 75 to 250%.

In the case of `O=C(N1CC2=C(C1)CN(S(=O)(=O)c1ccc3occc3c1)C2)C1(O)CC1` [Example 1-4, (5-(Benzofuran-5-ylsulfonyl)-3,4,5,6-tetrahydropyrrolo[3,4-c]pyrrol-2(1H)-yl)(1-hydroxycyclopropyl)methanone], in experiment [2], the activation at 1.54 µM fell in the range of 75 to 250%, the AC50 was in the range of 0.1 to 1 µM and the Emax lay in the range of 250 to 500%.

As to `O=C(c1ccc(OCC(F)(F)F)nc1)N1CC2=C(C1)CN(S(=O)(=O)c1ccc3occc3c1)C2` [Example 18-81, 5-[5-(1-Benzofuran-5-sulfonyl)-1H,2H,3H,4H,5H,6H-pyrrolo[3,4-c]pyrrole-2-carbonyl]-2-(2,2,2-trifluoroethoxy)pyridine], in experiment [2], the activation at 1.54 µM fell in the range of 250 to 50000%, the AC50 was in the range of 0.1 to 1 µM and the Emax was in the range of 250 to 500%.

`CC(C)(O)C(=O)N1CC2=C(C1)CN(S(=O)(=O)c1ccc3occc3c1)C2` [Example 1-3, 1-(5-(Benzofuran-5-ylsulfonyl)-3,4,5,6-tetrahydropyrrolo[3,4-c]pyrrol-2(1H)-yl)-2-hydroxy-2-methylpropan-1-one]: in experiment [2], the activation at 1.54 µM lay within 75 to 250%, the half-maximal activity concentration (AC50) is 0.1 to 1 µM and the Emax is 250 to 500%.

For `O=C(NC1CCOC1)N1CC2=C(C1)CN(S(=O)(=O)c1ccc3occc3c1)C2` (stereo not drawn) [Example 3-2, 5-(Benzofuran-5-ylsulfonyl)-N-(tetrahydrofuran-3-yl)-3,4,5,6-tetrahydropyrrolo[3,4-c]pyrrole-2(1H)-carboxamide], in experiment [2], the activation at 1.54 µM was 75 to 250%, the AC50 was in the range of 0.1 to 1 µM and the Emax was in the range of 250 to 500%.

For `Cc1cc(C(=O)N2CC3=C(C2)CN(S(=O)(=O)c2ccc4occc4c2)C3)nn1C` [Example 18-84, 3-[5-(1-Benzofuran-5-sulfonyl)-1H,2H,3H,4H,5H,6H-pyrrolo[3,4-c]pyrrole-2-carbonyl]-1,5-dimethyl-1H-pyrazole], in experiment [2], the activation at 1.54 µM was 75 to 250%, the AC50 lay in the range of 1 to 40 µM and the Emax lay within 75 to 250%.

In the case of `Cc1ccc(C(C)NC(=O)N2CC3=C(C2)CN(S(=O)(=O)c2ccc(OC(F)F)cc2)C3)s1` (stereo not drawn) [Example 21-7, 5-[4-(Difluoromethoxy)benzenesulfonyl]-N-[1-(5-methylthiophen-2-yl)ethyl]-1H,2H,3H,4H,5H,6H-pyrrolo[3,4-c]pyrrole-2-carboxamide], in experiment [2], the activation at 1.54 µM is 75 to 250%, the concentration at half-maximal activity (AC50) lay in the range of 1 to 40 µM and the Emax is 250 to 500%.

Turning to `O=C([C@H](O)c1ccccc1)N1CC2=C(C1)CN(S(=O)(=O)c1ccccc1OC(F)(F)F)C2` [Example 18-46, (2R)-2-hydroxy-2-phenyl-1-{5-[2-(trifluoromethoxy)benzenesulfonyl]-1H,2H,3H,4H,5H,6H-pyrrolo[3,4-c]pyrrol-2-yl}ethan-1-one], in experiment [2], the activation at 1.54 µM was 75 to 250%, the AC50 was in the range of 1 to 40 µM and the Emax was 75 to 250%.

For the compound `NCC1(C(=O)N2CC3=C(C2)CN(S(=O)(=O)c2ccc4occc4c2)C3)CC1` [Example 2-1, (1-(Aminomethyl)cyclopropyl)(5-(benzofuran-5-ylsulfonyl)-3,4,5,6-tetrahydropyrrolo[3,4-c]pyrrol-2(1H)-yl)methanone], in experiment [2], the activation at 1.54 µM is 75 to 250%, the half-maximal activity concentration (AC50) was 1 to 40 µM and the Emax lay within 75 to 250%.

With `O=C(NCc1ccco1)N1CC2=C(C1)CN(S(=O)(=O)c1ccc(OC(F)F)cc1)C2` [Example 21-2, 5-[4-(Difluoromethoxy)benzenesulfonyl]-N-(furan-2-ylmethyl)-1H,2H,3H,4H,5H,6H-pyrrolo[3,4-c]pyrrole-2-carboxamide], in experiment [2], the activation at 1.54 µM is 250 to 50000%, the AC50 was not above 0.1 µM and the Emax was 250 to 500%.
